Measurements as given in US4810422A, “Bile acid derivatives, their salts and production thereof” (priority 1986, dated 1989).

Tests used:
[1] = system: P388 Mouse leukemia cells; assay: Carcinolytic effect: inhibition of ^3 H-thymidine intake in P388 leukemia cells; type: cell-based; conditions: 2 hours then 1 hour with ^3 H-thymidine, vs. solvent control; for Percent inhibition against ^3 H-thymidine intake: 50 μM, 37° C
Procedure: P388 Mouse leukemia cells which were subjected to passage transplantation in CDF1 mice were suspended in RPMI1640 culture fluid containing 20 mM HEPES to a cell density of 5×10^5 cells/ml, and 1 ml each of aliquots were apportioned into test tubes. Each of the test samples was added to the suspension to a final concentration of 50 μM, and each preparation was incubated at 37° C with shaking (100 shuttles/min.). Two hours thereafter, ^3 H-thymidine was added to a final concentration of 0.25 μCi/ml, and the incubation was further carried out for 1 hour. Then the radioactivity taken in the cells was measured by a conventional method.

[2] = system: male ICR mice; assay: Toxicity: single administration, life span observed for 3 weeks; type: in vivo
Procedure: Separately, 500 mg/kg of the above test compound was administered intraperitoneally to a group of eight male ICR mice, and their life spans were similarly observed for 3 weeks.

Row | SMILES | inhibition at 50 µM ([1]; Mus musculus, P388, 37° C, read-out: Percent inhibition against ^3 H-thymidine intake) | Percent inhibition against ^3 H-thymidine intake [1] | mortality, intraperitoneal ([2]; 500 mg/kg intraperitoneal, eight male ICR mice) | mortality, oral ([2]; 2,000 mg/kg oral once, 0.5% CMC, four male ICR mice)
1 | C[C@H](CCC(=O)O)[C@H]1CC[C@H]2[C@@H]3[C@H](O)C[C@@H]4C[C@H](O)CC[C@]4(C)[C@H]3C[C@H](O)[C@]12C [Cholic acid, reference compound] | 2% |  |  | 
2 | C[C@H](CCC(=O)O)[C@H]1CC[C@H]2[C@@H]3[C@H](O)C[C@@H]4C[C@H](OC(=O)Cc5ccc(N(CCCl)CCCl)cc5)CC[C@]4(C)[C@H]3C[C@H](O)[C@]12C [Compound No. 2, 3-O-[p-(N,N-bis(2-chloroethyl)amino)phenylacetyl] cholic acid] |  | 90% |  | 
3 | C[C@H](CCC(=O)O)[C@H]1CC[C@H]2[C@@H]3[C@H](O)C[C@@H]4C[C@H](OC(=O)c5ccc(CN(CCCl)CCCl)cc5)CC[C@]4(C)[C@H]3C[C@H](O)[C@]12C [Compound No. 31, 3-O-[p-(N,N-bis(2-chloroethyl)aminomethyl)benzoyl] cholic acid] |  | 94% |  | 
4 | C[C@H](CCC(=O)O)[C@H]1CC[C@H]2[C@@H]3[C@H](O)C[C@@H]4C[C@H](OC(=O)CN(CCCl)CCCl)CC[C@]4(C)[C@H]3C[C@H](O)[C@]12C [Compound No. 38, 3-O-[N,N-bis(2-chloroethyl)aminoacetyl] cholic acid] |  | 83% | No mortality case was observed | No mortality case was observed
5 | COc1ccc(COC(=O)CC[C@@H](C)[C@H]2CC[C@H]3[C@@H]4[C@H](O)C[C@@H]5C[C@H](OC(=O)c6ccc(OC(=O)N(CCCl)CCCl)cc6)CC[C@]5(C)[C@H]4C[C@H](O)[C@]23C)cc1 [Compound No. 52, p-Methoxybenzyl 3-O-[p-(N,N-bis(2-chloroethyl)aminocarbonyloxy)benzoyl] cholate] |  | 88% |  | 
